Data on 6 molecules can be found in PMC7587356, “High-Throughput Screening for Inhibitors of the SARS-CoV-2 Protease Using a FRET-Biosensor” (Molecules, 2020).

The target of assay [1] is T1, SARS-CoV-2 3CLpro (Severe acute respiratory syndrome coronavirus 2, UniProt P0DTD1). Description: biochemical. The format is biochemical.
In assay [2] the target is T1, SARS-CoV-2 3CLpro. Description: biochemical. The class given is biochemical. The settings on record: for inhibition at 5 µM: 4 h.
Where [3] appears, read: with 0.01% Triton X-100; mean ± SD of triplicate; 4 h, 30 °C; read-out: A) EC50 with Triton X-100.
[4] abbreviates: without Triton X-100; mean ± SD of triplicate; 4 h, 30 °C; read-out: B) EC50 without Triton X-100.
Setting [5] is: sheet LOPAC_screen_w_protease, primary screen at 5 µM, mean of two replicates.
Setting [6] is: sheet LOPAC_screen_w_protease, primary screen at 5 µM, replicate 1.
Setting [7] is: sheet LOPAC_screen_w_protease, primary screen at 5 µM, replicate 2.
Setting [8] is: read-out: Replicate_1 (LOPAC screen with protease).
Setting [9] is: read-out: Replicate_2 (LOPAC screen with protease).
[10] abbreviates: read-out: mean (LOPAC screen with protease).

Like-named read-outs stand apart in the source and are kept apart here.

As usually defined, the EC50 is the concentration needed to bring the measured effect to its halfway point. As for `Oc1ccccc1O` [Pyrocatechol, reference compound], the “Ratio (A/B)” value in assay [1] came to 1.0. In addition, the results for the EC50 in assay [1] (setting [3]) and in assay [1] (setting [4]) were 4.04 ± 1.43 µM and 4.09 ± 1.22 µM, respectively. In addition, the “mean (LOPAC screen with protease)” value in assay [2] (setting [5]) came to 52.6956. In assay [2] (setting [6]), the “Replicate_1 (LOPAC screen with protease)” value was 53.9412. Moreover, in assay [2] (setting [7]), the “Replicate_2 (LOPAC screen with protease)” value was 51.45.

`N[C@@H](CCC(=O)N[C@@H](CSN=O)C(=O)NCC(=O)O)C(=O)O` [S-Nitrosoglutathione, reference compound]: in assay [1], the “Ratio (A/B)” value is 1.5. Besides, the EC50 in assay [1] (A) EC50 with Triton X-100) came out at 2.29 ± 0.245 µM; in assay [1] (B) EC50 without Triton X-100), 1.49 ± 0.627 µM. In addition, the inhibition at 5 µM worked out at 44.1% in assay [2] (setting [8]), 41.7% in assay [2] (setting [9]) and 42.9% in assay [2] (setting [10]).

In the case of `Br.Oc1ccc(C2CNCc3sccc32)cc1O` (centres unmarked) [SKF 89626, reference compound], the “Ratio (A/B)” value in assay [1] is recorded as 1.2. Moreover, the results for the EC50 in assay [1] (setting [3]) and in assay [1] (setting [4]) were 3.53 ± 0.565 µM and 2.83 ± 1.97 µM, respectively. Besides, the “mean (LOPAC screen with protease)” value in assay [2] (setting [5]) was determined as 42.8167. Besides, the “Replicate_1 (LOPAC screen with protease)” value in assay [2] (setting [6]) was 43.262. Moreover, in assay [2] (setting [7]), the “Replicate_2 (LOPAC screen with protease)” value was found to be 42.3715.

With `N#C/C(=C\c1ccc(O)c(O)c1)C(N)=S` [Tyrphostin 47, reference compound], the EC50 is over 20 µM in assay [1] (setting [3]) and 15.8 ± 10.1 µM in assay [1] (setting [4]). In addition, the inhibition at 5 µM is 28.2% in assay [2] (sheet LOPAC_screen_w_protease, primary screen at 5 µM, mean of two replicates, read-out: mean (LOPAC screen with protease)); 30.5% in assay [2] (sheet LOPAC_screen_w_protease, primary screen at 5 µM, replicate 1, read-out: Replicate_1 (LOPAC screen with protease)); 25.9% in assay [2] (sheet LOPAC_screen_w_protease, primary screen at 5 µM, replicate 2, read-out: Replicate_2 (LOPAC screen with protease)).

Consider `N#CC(C#N)=C(N)/C(C#N)=C/c1cc(O)c(O)c(O)c1` [Tyrphostin 51, reference compound], for which the “Ratio (A/B)” value in assay [1] is on record as 2.1. Also, the EC50 in assay [1] (setting [3]) turned out to be 19 ± 14.2 µM; in assay [1] (setting [4]), 9.12 ± 5.3 µM. For the same molecule, the results for the inhibition at 5 µM in assay [2] (setting [8]), in assay [2] (setting [9]) and in assay [2] (setting [10]) were 28%, 28.9% and 28.5%, respectively.

`COc1ccc2c(c1)CC[C@@H]1[C@@H]2CC[C@]2(C)[C@@H](NCCCCCCN3C(=O)C=CC3=O)CC[C@@H]12` [U-73122, reference compound]: the “Ratio (A/B)” value in assay [1] (EC50 with Triton X-100 / EC50 without Triton X-100, ratio greater than 2 suggests aggregation-based inhibitor) is recorded as 2.0. Moreover, the concentration for a half-maximal effect (EC50) in assay [1] (setting [3]) was found to be 0.694 ± 0.082 µM; in assay [1] (setting [4]), 0.35 ± 0.017 µM. For the same molecule, the “mean (LOPAC screen with protease)” value in assay [2] (setting [5]) was 88.5998. The “Replicate_1 (LOPAC screen with protease)” value in assay [2] (setting [6]) is 89.4118. In assay [2] (setting [7]), the “Replicate_2 (LOPAC screen with protease)” value was found to be 87.7878.
